The values that follow come from patent publication US5532229A, “Topical administration of vitamin D to mammals” (priority 1994, dated 1996).

Series [1] in a line: Experiment 1: serum radioactivity after one administration of radiolabelled vitamin D3 (intracardiac, gastric, dermal). In kind it is in vivo, Wistar rats. The text has this: Each point is the mean of 3-6 rats;
A comparison of serum radioactivity after one administration of radiolabelled vitamin D3 via the skin or gut, compared to intravascular injection.
The protocols and procedures used in this work were approved beforehand by an animal-care committee at the University of Toronto. Wistar rats, 250-g weight and fed normal diet, were divided into three groups of six, and each rat was given 400,000 cpm of […] (57 mCi/mmol, Amersham, UK). One group was given the [^14 C]-vitamin D3 by intracardiac injection; one group was given the tracer through an infant-feeding tube, directly into the stomach; and one group received the dose by application in 50 μL ethanol to a 2×2 cm patch of shaved skin on the lower back. Blood was taken by bleeding 0.25 mL from the tail, from three rats at a time, for each time indicated in the graph, except for the final sample at 3 wk, which is from all rats at the time of killing with an anesthetic overdose. The serum was counted in a Beckman LS6800 beta-counter and results are corrected for background, sample volume, and rat weight.

Series [2] deals with 1α-hydroxylase. As to the kind of experiment: Experiment 3: 1-hydroxylase in renal mitochondria. To be noted: for Renal mitochondria 1a-hydroxylase: 6 weeks. It is filed as in vivo, rat. How it is done: Male, Wistar rats were obtained at 120-130 g, and placed on a 0.01% calcium, 0.7% phosphate diet that was vitamin D deficient (Teklad Test Diets, Madison, WI) this was for one week to help deplete vitamin D stores. For the next three weeks the rats were fed the vitamin D-deficient diet, but with normal, 0.5%, calcium. Starting with these 3 weeks, the rats were divided into four vitamin D3 -treatment groups, initially, nine rats per group: group a) supplemented once weekly with 0.6 μg vitamin D3 (average dose, 0.08 μg/day); group b) supplemented once every second day with vitamin D3 to provide 2 nmol/day, i.e., each dose was 4 nmol of vitamin D3; group c) supplemented once every second day with vitamin D3 to provide 8 μg/day. The preceding groups all received the vitamin D3 through an infant-feeding tube inserted through the mouth into the stomach. One group, d), received its vitamin D3 in the ethanol applied onto a shaved 2 cm×2 cm patch of skin on the back, this was done every second day to provide vitamin D3 at 8 μg/day. The volume of each dose of vitamin D3 given was adjusted so that the stated doses are per 250 g body weight. Over a second 3-week period while maintaining the described vitamin D3 dosing regimens, diet calcium content was changed weekly and blood sampling was started (that is, changes in calcium and sampling was from weeks 4 to 6, inclusive, of receiving the appropriate vitamin D3 supplement). Diet calcium was first dropped to 0.01% then raised to 1.5% and finally dropped again to 0.01%. For each week of dietary calcium manipulation, blood was obtained at day zero (the day of but just prior to the change in calcium), and days 1, 3, and 7 after the change. During the first week, 0.5 mL of blood was taken on the first two of these days and anticoagulated with heparin, the cells were isolated and resuspended in normal rat plasma and reinjected into the femoral vein. […] For the subsequent samplings, only 0.2-0.3 mL of blood was taken by bleeding from the tail into precalibrated microcentrifuge tubes. In this way, the bleeds prior to sacrifice removed a net total of less than 2 mL of blood, that is, less than or equal to 10% of the blood volume. Samples of daytime urine was collected into microfuge tubes that were fastened to the cones of metabolic collection funnels designed to hang under the wire cages. The cages and cones were rinsed with 0.1 mol/L hydrochloric acid prior to each collection. To eliminate contamination of the urine with diet, stool or water, the rats were placed into these separate cages only during the urine-collection period, until about 1 mL urine was present in the microfuge tube, this was typically within 5 min to one hour.
Biochemical measurements. 1,25(OH)2 D3 in serum was measured by calf-thymus receptor-binding assay after initial purification of 1,25(OH)2 D3 with C18-OH cartridges (5). For the serum volumes that were minimal, serum was measured out in 50 μL increments, and the final result was adjusted for the volume of sample analyzed. To measure 1α-hydroxylase in renal mitochondria, the incubation was as described previously, except the substrate was 20 μmol/L nonradioactive 25(OH)D3. The assay was stopped by addition of 2.5 mL methanol. To monitor recovery of 1,25 (OH)2 D3, 2000 cpm of [^3 H]--1,25(OH)2 D3 were added in 50 μL ethanol prior to further extraction with two additions of 1.25 mL methylene chloride. The methylene chloride layer was taken and evaporated to dryness, redissolved in hexane, isopropanol, methanol (90:9: 1) for purification by HPLC, Zorbax-Sil column. The material eluting as 1,25(OH)2 D3 was evaporated and redissolved in acetonitrile: water for further purification with C18-OH cartridges and quantitation by thymus receptor assay, as described for serum. Renal 24-hydroxylase was measured by incubating mitochondria with [^3 H]-25(OH)D3 as substrate (Vieth and Fraser, J Biol Chem. 254:12455-12460;1979). […]

Series [3] is described as follows: Experiment 4: urinary calcium to creatinine ratio after gastric or dermal vitamin D3. It is filed as in vivo, rats. Here is the method: Each point represents the mean ±SEM of 7 normal, 250-g rats.
Toxicity: Short-term responses to increasing doses of vitamin D3 given dermally or by gastric tube.
To compare the efficacy of increasing doses of vitamin D3 in the short term. A fatal oral vitamin D3 dose is 14 days of 2600 μg/day (Sheppard RM and DeLuca HF, Arch Biochem Biophys 1980; 202: 43-55). The present experiment was designed to compare effects of doses up to this level, given by gastric tube or dermally.

For series [4] the following is noted: generated by ultraviolet exposure, bound to DBP, experimental subjects; cited from earlier work.

Consider `C=C1CC[C@H](O)C/C1=C/C=C1\CCC[C@]2(C)[C@@H]([C@H](C)CCCC(C)C)CC[C@@H]12` [vitamin D3], for which the “difference in serum radioactivity between dermal and oral groups” value in series [1] (3 wk) is recorded as “not statistically significant”. Moreover, the “vitamin D3 delivered into the blood compared to direct injection” value in series [1] (dermal and gastric) was “less than half”. In addition, the “rate of uptake into the circulation from the skin vs gut” value in series [1] (one tracer dose, rats) is recorded as “more slowly than from the gut”. The “radioactivity in kidney, liver, and adipose tissues” value in series [1] (radioactive vitamin D3) is reported as “paralleled to the serum levels”. In addition, in series [2] (20 nmol/250 g/day), the “difference between the two routes in activities of renal enzymes (1-hydroxylase)” value is “no significant difference between the two routes”. Further, the “Renal mitochondria 1a-hydroxylase” value is 1052 fmol/mg/mi in series [2] (0.08 μg/day diet), 993 fmol/mg/mi in series [2] (0.8 μg/day G1 (gastric)), 539 fmol/mg/mi in series [2] (8 μg/day G1 (gastric)) and 630 fmol/mg/mi in series [2] (8 μg/day dermal). The 1-hydroxylase in kidney entry in series [2] (8 μg/day, gastric and dermal, vs groups with less vitamin D3) is on record as “suppressed 1-hydroxylase in kidney”. The “increase in calcium in the urine” value is 2.5 -fold in series [3] (highest dermal dose) and 6 -fold in series [3] (highest gastric dose). Moreover, the persistence in circulation result in series [4] is “circulate unchanged for a prolonged time”.
